How the values were obtained:
WRN [1] = target: T1, WRN (Homo sapiens, UniProt Q14191); assay: WRN ATPase activity assay (ADP-Glo); type: biochemical; conditions: IC50, 1-hr pre-incubation with enzyme; geometric means of at least 2 independent replicates
T1 construct: A His-tagged construct of WRN (AA S2-S1235) was produced and used for the ATPase assay; His; made in house; host or cells: Sf9 insect cells (baculovirus)
Description: Compounds of the Examples were tested for WRN ATPase activity. WRN ATPase activity catalyzes ATP hydrolysis to produce ADP and phosphate. DNA encoding the target protein, 6×HIS-TEV-WRN-517-945, was produced, cloned and transfected as detailed in Example D. The amount of ADP produced was measured using ADP-Glo™ Kinase Assay kit from Promega Corporation in a Greiner white regular volume 384 wells assay plate (Greiner #781075). Data was normalized to a standard curve generated using various ADP concentrations and the corresponding luminescent signal intensities at each concentration. The assay conditions were optimized for enzyme concentration (WRN), substrate concentrations (ATP & dsDNA), and the linearity of the ATPase reaction, in the following assay buffer: 50 mM Tris-HCl, pH-7.5, 2 mM MgCl2, 50 mM NaCl, 1 mM EGTA, 0.01% P-20, 0.05% BSA, and 2 mM DTT prepared with nuclease free water.
A serial dilution (1:3 scheme) of the compounds were prepared in neat DMSO, with 100 nL of the compounds dispensed in the 384 wells assay plate. An 1-hr pre-incubation of the compounds with enzyme was included. A His-tagged construct of WRN (AA S2-S1235) was produced and used for the ATPase assay. Maximum inhibition control wells were set up with the addition of only assay buffer, and no inhibition control wells were set up with neat DMSO without test compounds. The reaction was initiated by addition of 5 μL substrate mix (200 μM ultrapure ATP, and 50 nM dsDNA prepared in assay buffer) and incubated at 25° C. for 35 min. A forked dsDNA oligomer substrate was prepared by annealing equal amounts of oligo GPat-1 ([BHQ2][…]) and oligo GPat-2 ([…][TAM]) and was used as dsDNA substrate for WRN ATPase assay. A typical ATPase reaction consists of 25 nM forked dsDNA, 100 μM ATP, and 1 nM WRN prepared in assay buffer. The WRN ATPase reaction was stopped by the addition of 5 μL of ADP-Glo Reagent from ADP-Glo™ Kinase Assay kit and incubated for 40 min to deplete the unreacted ATP. Afterwards, 5 μL of Kinase Detection Reagent from the ADP-Glo™ Kinase Assay kit was added and incubated for 1 hr for the development of luminescence signal.
Luminesce signals were measured on BMG PHERAstar FSX using luminescence protocol. Data analysis was carried out using Genedata software following % of control normalization. Fitting parameters include dose response IC50, Hill slope (n), maximum inhibition (S∞), and minimum inhibition (S0). The reported IC50 values for compounds in this invention are the geometric means of at least 2 independent replicates.

WRN [2] = target: T1, WRN; assay: WRN Helicase activity assay (fluorescence DNA unwinding); type: biochemical; conditions: IC50, 1-hr pre-incubation with enzyme; geometric means of at least 2 independent replicates
Description: Compounds of the examples were tested for WRN helicase activity. DNA encoding the target protein, 6×HIS-TEV-WRN-517-945, was produced, cloned and transfected as detailed in Example D. To determine the inhibitory properties of the compounds, a 384 wells plate-based Helicase assay was set up to measure the extent of DNA unwinding (Helicase) activity of WRN. The WRN Helicase assay was designed to measure increase in fluorescence signal using a fluorescence based, donor-quencher paired forked dsDNA oligomer substrate (custom synthesis from Sigma-Aldrich) prepared by annealing equal amounts of oligo GPat-1 ([BHQ2][…]) and oligo GPat-2 ([…][TAM]). Continuous measurement of fluorescent signal was used to optimize the buffer conditions, concentration of enzyme (WRN), concentration of substrates (ATP & dsDNA), and the linearity of the Helicase reaction. All solutions were prepared in the following assay buffer: 50 mM Tris-HCl, pH-7.5, 2 mM MgCl2, 50 mM NaCl, 1 mM EGTA, 0.01% P-20, 0.05% BSA, and 2 mM DTT prepared with nuclease free water.
A serial dilution (1:3 scheme) of the compounds was prepared in neat DMSO and 100 nL of the compounds was dispensed in the Greiner black low volume (Greiner #784076) 384 wells assay plate. An 1-hr pre-incubation of the compounds with enzyme was included. A His-tagged construct of WRN (AA S2-S1235) was produced and used for the ATPase assay. Maximum inhibition control wells were set up with the addition of only assay buffer, and no inhibition control wells were set up with neat DMSO without test compounds. The reaction was initiated by addition of 5 μL substrate mix (200 μM ultrapure ATP, and 50 nM dsDNA prepared in assay buffer) and incubated at 25° C. for 35 min. A typical Helicase reaction consists of 25 nM forked dsDNA, 100 μM ATP, and 1 nM WRN prepared in assay buffer. The WRN Helicase reaction was quenched by the addition of 5 μL ‘STOP’ solution containing 100 mM EDTA (final EDTA concentration 33.33 mM) prepared in assay buffer. The plates were read on BMG PHERAstar FSX using 540/590 module to measure an increase of fluorescence. Data analysis was carried out using the Genedata software following % of control normalization. Fitting parameters include dose response IC50, Hill slope (n), maximum inhibition (S∞), and minimum inhibition (S0). The reported IC50 values for compounds in this invention are the geometric means of at least 2 independent replicates.

T1 sequence (Q14191 2-1235): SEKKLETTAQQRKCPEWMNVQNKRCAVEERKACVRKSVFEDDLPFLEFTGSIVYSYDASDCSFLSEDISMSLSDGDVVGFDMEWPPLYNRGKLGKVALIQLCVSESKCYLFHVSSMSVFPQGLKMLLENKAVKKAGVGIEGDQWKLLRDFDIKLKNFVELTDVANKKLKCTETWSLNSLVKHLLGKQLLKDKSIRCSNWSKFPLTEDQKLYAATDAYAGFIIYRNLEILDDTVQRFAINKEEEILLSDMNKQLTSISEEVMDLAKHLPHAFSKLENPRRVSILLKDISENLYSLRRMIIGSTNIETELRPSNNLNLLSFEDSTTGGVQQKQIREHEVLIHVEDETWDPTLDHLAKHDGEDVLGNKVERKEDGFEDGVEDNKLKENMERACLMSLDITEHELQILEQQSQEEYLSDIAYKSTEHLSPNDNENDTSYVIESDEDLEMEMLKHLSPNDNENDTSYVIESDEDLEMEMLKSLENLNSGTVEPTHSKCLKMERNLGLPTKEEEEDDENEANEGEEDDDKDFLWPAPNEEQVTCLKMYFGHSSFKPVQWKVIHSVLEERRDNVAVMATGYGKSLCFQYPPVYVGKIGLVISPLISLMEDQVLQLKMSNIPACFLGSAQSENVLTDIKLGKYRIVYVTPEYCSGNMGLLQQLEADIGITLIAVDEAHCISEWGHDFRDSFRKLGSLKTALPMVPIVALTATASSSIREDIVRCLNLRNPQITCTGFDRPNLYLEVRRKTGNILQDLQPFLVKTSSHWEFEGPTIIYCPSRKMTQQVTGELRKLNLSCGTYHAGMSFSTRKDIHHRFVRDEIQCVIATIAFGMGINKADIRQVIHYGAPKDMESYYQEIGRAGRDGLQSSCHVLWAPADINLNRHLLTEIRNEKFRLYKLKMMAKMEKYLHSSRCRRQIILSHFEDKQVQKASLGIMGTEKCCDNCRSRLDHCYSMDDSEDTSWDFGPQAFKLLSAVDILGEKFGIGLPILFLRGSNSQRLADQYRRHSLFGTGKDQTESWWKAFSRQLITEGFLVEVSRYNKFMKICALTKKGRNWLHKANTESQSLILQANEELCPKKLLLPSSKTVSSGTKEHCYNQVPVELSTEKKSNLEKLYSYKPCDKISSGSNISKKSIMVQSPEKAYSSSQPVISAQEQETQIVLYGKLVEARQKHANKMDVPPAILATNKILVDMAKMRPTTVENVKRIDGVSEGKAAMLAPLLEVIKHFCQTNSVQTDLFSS

| SMILES | IC50 (WRN [1]) [nM] | IC50 (WRN [2]) [nM] |
| --- | --- | --- |
| C=CC(=O)Nc1ccccc1-c1c(CC)n(CC(=O)Nc2ccc(C(F)(F)F)cc2Cl)c2nc(C(C)C)nn2c1=O [Example 21, N-(2-(4-(2-((2-Chloro-4-(trifluoromethyl)phenyl)amino)-2-oxoethyl)-5-ethyl-2-isopropyl-7-oxo-4,7-dihydro-[1,2,4]triazolo[1,5-a]pyrimidin-6-yl)phenyl)acrylamide] | 100 to 500 | 100 to 500 |
| C=CC(=O)Nc1ccccc1-c1c(CC)n(CC(=O)Nc2ccc(C(F)(F)F)cc2)c2nc(C)nn2c1=O [Example 18, N-(2-(5-Ethyl-2-methyl-7-oxo-4-(2-oxo-2-((4-(trifluoromethyl)phenyl)amino)ethyl)-4,7-dihydro-[1,2,4]triazolo[1,5-a]pyrimidin-6-yl)phenyl)acrylamide] | 500 to 1000 | 500 to 1000 |
| CCOC(=O)/C=C/C(=O)Nc1ccccc1-c1c(CC)n(CC(=O)Nc2ccc(C(F)(F)F)cc2)c2nc(C3=CCOCC3)nn2c1=O [Example 3, Ethyl (E)-4-((2-(2-(3,6-dihydro-2H-pyran-4-yl)-5-ethyl-7-oxo-4-(2-oxo-2-((4-(trifluoromethyl)phenyl)amino)ethyl)-4,7-dihydro-[1,2,4]triazolo[1,5-a]pyrimidin-6-yl)phenyl)amino)-4-oxobut-2-enoate] | 500 to 1000 | 1000 to 2000 |
| C=CC(=O)Nc1ccccc1-c1c(CC)n(CC(=O)Nc2ccc(C(F)(F)F)cc2)c2nc(C3CCC3)nn2c1=O [Example 19, N-(2-(2-Cyclobutyl-5-ethyl-7-oxo-4-(2-oxo-2-((4-(trifluoromethyl)phenyl)amino)ethyl)-4,7-dihydro-[1,2,4]triazolo[1,5-a]pyrimidin-6-yl)phenyl)acrylamide] | 100 to 500 | 100 to 500 |
| C=CC(=O)Nc1c(C)cccc1-c1c(CC)n(CC(=O)Nc2ccc(C(F)(F)F)cc2)c2nc(C3=CCOCC3)nn2c1=O [Example 7, N-(2-(2-(3,6-Dihydro-2H-pyran-4-yl)-5-ethyl-7-oxo-4-(2-oxo-2-((4-(trifluoromethyl)phenyl)amino)ethyl)-4,7-dihydro-[1,2,4]triazolo[1,5-a]pyrimidin-6-yl)-6-methylphenyl)acryl amide] | 100 to 500 | 500 to 1000 |

Other lines, results leading:

| IC50 (WRN [1]) [nM] | IC50 (WRN [2]) [nM] | SMILES |
| --- | --- | --- |
| < 100 | < 100 | C=CC(=O)Nc1cc(Cl)ccc1-c1c(CC)n(CC(=O)Nc2ccc(C(F)(F)F)cc2)c2nc(C3=CCOCC3)nn2c1=O [Example 10, N-(5-Chloro-2-(2-(3,6-dihydro-2H-pyran-4-yl)-5-ethyl-7-oxo-4-(2-oxo-2-((4-(trifluoromethyl)phenyl)amino)ethyl)-4,7-dihydro-[1,2,4]triazolo[1,5-a]pyrimidin-6-yl)phenyl)acrylamide] |
| < 100 | < 100 | C=CC(=O)Nc1ccccc1-c1c(CC)n(CC(=O)Nc2ccc(C(F)(F)F)cc2)c2nc(C3CCN(C(=O)C=C)CC3)nn2c1=O [Example 25, N-(2-(2-(1-Acryloylpiperidin-4-yl)-5-ethyl-7-oxo-4-(2-oxo-2-((4-(trifluoromethyl)phenyl)amino)ethyl)-4,7-dihydro-[1,2,4]triazolo[1,5-a]pyrimidin-6-yl)phenyl)acrylamide] |
| < 100 | < 100 | CCc1c(-c2ccccc2NC(=O)/C(C#N)=C/C(C)C)c(=O)n2nc(C3=CCOCC3)nc2n1CC(=O)Nc1ccc(C(F)(F)F)cc1 (single isomer, unassigned) [Example 5, (E)-2-Cyano-N-(2-(2-(3,6-dihydro-2H-pyran-4-yl)-5-ethyl-7-oxo-4-(2-oxo-2-((4-(trifluoromethyl)phenyl)amino)ethyl)-4,7-dihydro-[1,2,4]triazolo[1,5-a]pyrimidin-6-yl)phenyl)-4-methylpent-2-enamide] |
| < 100 | < 100 | C=CC(=O)Nc1ccccc1-c1c(CC)n(CC(=O)Nc2ccc(C(F)(F)F)cc2)c2nc(-c3cccs3)nn2c1=O [Example 22, N-(2-(5-Ethyl-7-oxo-4-(2-oxo-2-((4-(trifluoromethyl)phenyl)amino)ethyl)-2-(thiophen-2-yl)-4,7-dihydro-[1,2,4]triazolo[1,5-a]pyrimidin-6-yl)phenyl)acrylamide] |
| < 100 | < 100 | C=CC(=O)Nc1ccccc1-c1c(CC)n(CC(=O)Nc2ccc(C(F)(F)F)cc2)c2nc(C3CC3)nn2c1=O [Example 17, N-(2-(2-Cyclopropyl-5-ethyl-7-oxo-4-(2-oxo-2-((4-(trifluoromethyl)phenyl)amino)ethyl)-4,7-dihydro-[1,2,4]triazolo[1,5-a]pyrimidin-6-yl)phenyl)acrylamide] |

— patent US20250333419A1, “BICYCLIC COMPOUNDS AS INHIBITORS OF WRN” (Incyte Corporation, priority 2023, published 2025)
